According to publication PMC4000412, “Novel LHRH-receptor-targeted cytolytic peptide, EP-100: first-in-human phase I study in patients with advanced LHRH-receptor-expressing solid tumors” (Cancer Chemotherapy and Pharmacology, 2014):
Entries after “also recorded” stand apart in the source; their conditions may differ. Where two headings read alike, the source gives them in different places. Peptide text beside a SMILES is read from it.

What was measured:
[1] = Phase I dose-escalation safety: MTD, DLT, adverse events (NCI CTCAE 3.0); type: in vivo, human
Method: An open-label dose-escalation study was conducted at three centers after review and approval by each centers’ Institutional Review Board. Patients’ written informed consent was provided prior to study enrollment. The primary objectives of the study were to determine the maximum-tolerated dose (MTD) of EP-100 by intravenous (IV) infusion and to describe any dose limiting toxicities (DLT), which would inform the recommended phase 2 dose (RP2D) of EP-100 for future phase 2 protocols. Secondary objectives included: (a) to profile the PK and PD of EP-100, (b) to assess any drug immunogenicity by antidrug antibodies (ADA) which may react with endogenous LHRH, (c) to monitor biomarkers of pharmacologic activity of EP-100 and (d) to assess antitumor activity of EP-100 by radiographic assessments.
Cohorts of three patients were enrolled in a 3 + 3 dose-escalation design. […] A conservative first-in-human starting dose of 0.6 mg/m^2 was chosen, based on the repeat-dose toxicity studies in dogs (which appeared to be the most sensitive species). The initial dose schedule of one 30 min infusion weekly was predicted from animal PK profiles. Dosing frequency and infusion time were increased in subsequent cohorts by two protocol amendments. To increase the cumulative dose-exposure to EP-100, infusions were increased to twice weekly after conducting safety assessments in the first seven cohorts (n = 21 patients, at dose levels 0.6–7.8 mg/m^2). Twice weekly infusions effectively doubled the EP-100 delivered in all patients after cohort 7. The infusion time for the twice weekly doses also was increased from 30 to 60 min beginning with one patient in cohort 8 (dose level 11.7 mg/m^2), which decreased the intensity of infusion reactions (described below).
The absence of grade 2 drug-related toxicities in lower dose cohorts allowed 100 % dose acceleration. In the event of grade 2 or higher non-DLT in one or more patients, dose was escalated by 50 %. Dose escalation was limited to 50 % for any grade 1 or 2 drug-related dermatologic reactions unlikely to be allergic reaction or histamine-release syndromes and to 25 % for any grade 3 or 4 drug-related infusion reaction. With occurrence of the first DLT, the cohort was expanded to three additional patients. If one or more of the three additional patients at that dose level experienced DLT (total of two or more patients with DLT), MTD was reached. MTD was defined as the dose level below which two out of three to six patients experienced a DLT during the first cycle or during 1 complete cycle (28 days).
All adverse events (AE) were graded and reported according to National Cancer Institute Common Terminology Criteria for Adverse Events version 3.0 (NCI CTCAE 3.0). DLT were recorded during Cycle 1 if patients had any of the following: grade 4 neutropenia lasting 5 or more days, grade 3/4 neutropenia with fever and/or infection, grade 4 thrombocytopenia or grade 3 thrombocytopenia with bleeding, grade 3 or 4 allergic reaction, grade 3 or 4 drug-related non-hematologic toxicity (not including grade 3 nausea/vomiting or diarrhea with sub-optimal prophylactic and curative treatment) or a dose delay of more than 2 weeks due to treatment-related AE or laboratory abnormalities. Any grade 3 AE not judged to be clinically significant (e.g., alopecia or drug-related fever) were not considered DLT.

[2] = ref Esperance data on file, cited from earlier work
Method: A conservative first-in-human starting dose of 0.6 mg/m^2 was chosen, based on the repeat-dose toxicity studies in dogs (which appeared to be the most sensitive species). The initial dose schedule of one 30 min infusion weekly was pre ...

[3] = cited from earlier work; for histamine release (clinical signs: swelling, redness or raised areas): pre-clinical studies; for well tolerated dose (as high as): repeated dose, ref Esperance data on file
Method: Clinical signs of histamine release were eliminated in a female dog and lessened in a male dog when diphenhydramine was administered. Therefore, histamine release may cause IRDRs, but it remains unclear how EP-100 triggers IRDRs in humans and why the reaction is seen in skin only. Among patients experiencing IRDRs, hematolo ...

[4] = selected toxicities, all cycles, N = 37

In the case of `CC(C)C[C@H](NC(=O)CNC(=O)[C@H](Cc1ccc(O)cc1)NC(=O)[C@H](CO)NC(=O)[C@H](Cc1c[nH]c2ccccc12)NC(=O)[C@H](Cc1c[nH]cn1)NC(=O)[C@@H]1CCC(=O)N1)C(=O)N[C@@H](CCCNC(=N)N)C(=O)N1CCC[C@H]1C(=O)NCC(=O)N[C@@H](CCCCN)C(=O)N[C@@H](Cc1ccccc1)C(=O)N[C@@H](C)C(=O)N[C@@H](CCCCN)C(=O)N[C@@H](Cc1ccccc1)C(=O)N[C@@H](C)C(=O)N[C@@H](CCCCN)C(=O)N[C@@H](CCCCN)C(=O)N[C@@H](Cc1ccccc1)C(=O)N[C@@H](C)C(=O)N[C@@H](CCCCN)C(=O)N[C@@H](Cc1ccccc1)C(=O)N[C@@H](C)C(=O)N[C@@H](CCCCN)C(=O)N[C@@H](CCCCN)C(=O)N[C@@H](Cc1ccccc1)C(=O)N[C@@H](C)C(=O)N[C@@H](CCCCN)C(=O)O` [EP-100] (HELM PEPTIDE1{[Glp].H.W.S.Y.G.L.R.P.G.K.F.A.K.F.A.K.K.F.A.K.F.A.K.K.F.A.K}$$$$V2.0; C-terminus assumed), the “IRDRs in the four lowest dose cohorts” value ([1]; 0.6–1.7 mg/m^2 at dose concentrations of 0.01–0.03 mg/mL) was “No IRDRs”, the “toxicities / AE of grade 3 or higher” value ([1]; all 37 patients, all dose levels) was “No toxicities ≥grade 3; also recorded: no grade 3 or 4 AE” and the “IRDRs (infusion-related dermatologic reactions) reported” value ([1]; all dose levels) was 10 of 37. For the same compound, the “SAE Disease progression, No. of patients (%)” value ([1]; dosing 1.35 mg/m^2 qw) was 1 (2.7) No. of patients (%), the “SAE Disease progression, Outcome” value ([1]; dosing 1.35 mg/m^2 qw) was “Death” and the “SAE Disease progression, Relationship to EP-100” value ([1]; dosing 1.35 mg/m^2 qw) was “Unrelated”. For the same compound, the “SAE Gastrointestinal hemorrhage, No. of patients (%)” value ([1]; dosing 1.35 mg/m^2 qw) was 1 (2.7) No. of patients (%), the “SAE Gastrointestinal hemorrhage, Outcome” value ([1]; dosing 1.35 mg/m^2 qw) was “Resolved” and the “SAE Gastrointestinal hemorrhage, Relationship to EP-100” value ([1]; dosing 1.35 mg/m^2 qw) was “Unlikely related”. The “SAE Peripheral edema, No. of patients (%)” value ([1]; dosing 1.35 mg/m^2 qw) was 1 (2.7) No. of patients (%), the “SAE Peripheral edema, Outcome” value ([1]; dosing 1.35 mg/m^2 qw) was “Resolved with sequelae” and the “SAE Peripheral edema, Relationship to EP-100” value ([1]; dosing 1.35 mg/m^2 qw) was “Unrelated”. For the same compound, the “SAE Pain, No. of patients (%)” value ([1]; dosing 1.7 mg/m^2 qw) was 1 (2.7) No. of patients (%), the “SAE Pain, Outcome” value ([1]; dosing 1.7 mg/m^2 qw) was “Ongoing” and the “SAE Pain, Relationship to EP-100” value ([1]; dosing 1.7 mg/m^2 qw) was “Unrelated”. The “SAE Chills, No. of patients (%)” value ([1]; dosing 11.7 mg/m^2 biw) was 1 (2.7) No. of patients (%), the “SAE Chills, Outcome” value ([1]; dosing 11.7 mg/m^2 biw) was “Resolved” and the “SAE Chills, Relationship to EP-100” value ([1]; dosing 11.7 mg/m^2 biw) was “Unrelated”. For the same compound, the “SAE Hydronephrosis, No. of patients (%)” value ([1]; dosing 11.7 mg/m^2 biw) was 1 (2.7) No. of patients (%), the “SAE Hydronephrosis, Outcome” value ([1]; dosing 11.7 mg/m^2 biw) was “Resolved” and the “SAE Hydronephrosis, Relationship to EP-100” value ([1]; dosing 11.7 mg/m^2 biw) was “Unrelated”. The “SAE Febrile neutropenia, No. of patients (%)” value ([1]; dosing 17.5 mg/m^2 biw) was 1 (2.7) No. of patients (%), the “SAE Febrile neutropenia, Outcome” value ([1]; dosing 17.5 mg/m^2 biw) was “Resolved” and the “SAE Febrile neutropenia, Relationship to EP-100” value ([1]; dosing 17.5 mg/m^2 biw) was “Unrelated”. For the same compound, the “SAE Ascites, No. of patients (%)” value ([1]; dosing 26 mg/m^2 biw) was 1 (2.7) No. of patients (%), the “SAE Ascites, Outcome” value ([1]; dosing 26 mg/m^2 biw) was “Resolved with sequelae” and the “SAE Ascites, Relationship to EP-100” value ([1]; dosing 26 mg/m^2 biw) was “Unlikely related”. For the same compound, the “SAE Fatigue, No. of patients (%)” value ([1]; dosing 26 mg/m^2 biw) was 1 (2.7) No. of patients (%), the “SAE Fatigue, Outcome” value ([1]; dosing 26 mg/m^2 biw) was “Resolved” and the “SAE Fatigue, Relationship to EP-100” value ([1]; dosing 26 mg/m^2 biw) was “Unrelated”. The “SAE Facial paresis, No. of patients (%)” value ([1]; dosing 40 mg/m^2 biw) was 1 (2.7) No. of patients (%), the “SAE Facial paresis, Outcome” value ([1]; dosing 40 mg/m^2 biw) was “Ongoing” and the “SAE Facial paresis, Relationship to EP-100” value ([1]; dosing 40 mg/m^2 biw) was “Unrelated”. For the same compound, the “SAE Gastrointestinal obstruction, No. of patients (%)” value ([1]; dosing 0.6, 0.9 mg/m^2 qw) was 2 (5.4) No. of patients (%), the “SAE Gastrointestinal obstruction, Outcome” value ([1]; dosing 0.6, 0.9 mg/m^2 qw) was “Resolved with sequelae” and the “SAE Gastrointestinal obstruction, Relationship to EP-100” value ([1]; dosing 0.6, 0.9 mg/m^2 qw) was “Unrelated”. The “SAE Pleural effusion, No. of patients (%)” value ([1]; dosing 11.7, 26 mg/m^2 biw) was 2 (5.4) No. of patients (%), the “SAE Pleural effusion, Outcome” value ([1]; dosing 11.7, 26 mg/m^2 biw) was “Resolved” and the “SAE Pleural effusion, Relationship to EP-100” value ([1]; dosing 11.7, 26 mg/m^2 biw) was “Unrelated”. The “maximum-tolerated dose (MTD)” value ([1]; highest dose evaluated 40 mg/m^2 twice weekly, IV infusion, 3 of 4 weeks per 28 day cycle) was “not reached”, the “onset of IRDRs after start of the drug infusion” value ([1]; in vivo) was ≤ 15 min and the “infusion site hypersensitivity, patients” value ([1]; n = 4 patients of 37) was 10.8%. For the same compound, the “pain, patients” value ([1]; one patient of 37) was 2.7%, the “AP (alkaline phosphatase), Grade 1/2” value [1, 4] was 1 (2.7) No. of patients (%) and the “AP (alkaline phosphatase), Grade 3/4” value [1, 4] was 0 No. of patients (%). For the same compound, the “AST/ALT, Grade 1/2” value [1, 4] was 1 (2.7) No. of patients (%), the “AST/ALT, Grade 3/4” value [1, 4] was 0 No. of patients (%) and the “Diarrhea, Grade 1/2” value [1, 4] was 1 (2.7) No. of patients (%). The “Diarrhea, Grade 3/4” value [1, 4] was 0 No. of patients (%), the “Fatigue, Grade 1/2” value [1, 4] was 4 (10.8) No. of patients (%) and the “Fatigue, Grade 3/4” value [1, 4] was 0 No. of patients (%). The “Gastroesophageal reflux, Grade 1/2” value [1, 4] was 1 (2.7) No. of patients (%), the “Gastroesophageal reflux, Grade 3/4” value [1, 4] was 0 No. of patients (%) and the “Hemoglobin, Grade 1/2” value [1, 4] was 0 No. of patients (%). For the same compound, the “Hemoglobin, Grade 3/4” value [1, 4] was 0 No. of patients (%), the “Infusion-related dermatologic reactions, Grade 1/2” value [1, 4] was 10 (27) No. of patients (%) and the “Infusion-related dermatologic reactions, Grade 3/4” value [1, 4] was 0 No. of patients (%). The “Neutrophils, Grade 1/2” value [1, 4] was 0 No. of patients (%), the “Neutrophils, Grade 3/4” value [1, 4] was 0 No. of patients (%) and the “Platelets, Grade 1/2” value [1, 4] was 0 No. of patients (%). For the same compound, the “Platelets, Grade 3/4” value [1, 4] was 0 No. of patients (%), the “Total bilirubin, Grade 1/2” value [1, 4] was 0 No. of patients (%) and the “Total bilirubin, Grade 3/4” value [1, 4] was 0 No. of patients (%). The “Vomiting, Grade 1/2” value [1, 4] was 1 (2.7) No. of patients (%), the “Vomiting, Grade 3/4” value [1, 4] was 0 No. of patients (%) and the “number of SAE recorded” value ([1]; treatment-emergent, 37 patients) was “Fourteen”. For the same compound, the “decreased appetite, patients” value ([1]; two patients of 37) was 5.4%, the “time to disappearance of all IRDR symptoms after cessation of the infusion” value ([1]; typically) was ≤ 30 min and the “highest non-severely toxic dose” value ([2]; repeat-dose animal studies) was 2.0 mg/kg/dose. The “pharmacologic effect on pituitary LH and FSH” value ([2]; some animals, with reduction in uterine and epididymal weights) was “reduction in pituitary production”, the “histamine release (clinical signs: swelling, redness or raised areas)” value ([3]; beagle dogs) was “may trigger histamine release” and the “histamine release (clinical signs: swelling, redness or raised areas)” value ([3]; mice) was “may trigger histamine release”. The “well tolerated dose (as high as)” value ([3]; dogs) was 2.0 mg/kg and the “well tolerated dose (as high as)” value ([3]; mice) was 2.0 mg/kg.
